In data set [1] the target is T1, Dual specificity tyrosine-phosphorylation-regulated kinase 1A (Homo sapiens, UniProt Q13627). Briefly: Binding affinity to DYRK1A (unknown origin) assessed as inhibition constant.
Data set [2] deals with T1, Dual specificity tyrosine-phosphorylation-regulated kinase 1A. The data set is described as follows: Inhibition of DYRK1A (unknown origin).
The target of data set [3] is Dual specificity tyrosine-phosphorylation-regulated kinase 1B (Homo sapiens, UniProt Q9Y463). The data set is described as follows: Inhibition of DYRK1B (unknown origin).
In data set [4] the target is T2, Dual specificity tyrosine-phosphorylation-regulated kinase 2 (Homo sapiens) (UniProt Q92630).
T2 sequence (whole entry): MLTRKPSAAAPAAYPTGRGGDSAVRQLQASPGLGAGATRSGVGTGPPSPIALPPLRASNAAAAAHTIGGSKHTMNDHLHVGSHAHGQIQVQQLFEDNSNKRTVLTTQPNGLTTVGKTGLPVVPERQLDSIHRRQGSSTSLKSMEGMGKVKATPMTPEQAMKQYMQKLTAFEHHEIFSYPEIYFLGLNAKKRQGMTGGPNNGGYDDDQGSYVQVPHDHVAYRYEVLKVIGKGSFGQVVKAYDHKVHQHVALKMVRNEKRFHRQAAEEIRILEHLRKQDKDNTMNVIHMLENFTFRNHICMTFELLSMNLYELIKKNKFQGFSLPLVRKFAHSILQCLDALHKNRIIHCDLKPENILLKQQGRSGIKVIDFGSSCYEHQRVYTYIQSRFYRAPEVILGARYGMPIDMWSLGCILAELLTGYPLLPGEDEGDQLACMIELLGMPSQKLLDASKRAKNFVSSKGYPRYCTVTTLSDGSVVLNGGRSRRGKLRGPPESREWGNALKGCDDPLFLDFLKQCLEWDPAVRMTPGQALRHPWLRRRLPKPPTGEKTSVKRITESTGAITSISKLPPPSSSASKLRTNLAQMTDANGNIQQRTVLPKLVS
Briefly: Inhibition of DYRK2 (unknown origin) at 10 uM relative to control.

The target in data set [5] is T3, Dual specificity tyrosine-phosphorylation-regulated kinase 3 (Homo sapiens) (UniProt O43781).
T3 sequence (whole entry): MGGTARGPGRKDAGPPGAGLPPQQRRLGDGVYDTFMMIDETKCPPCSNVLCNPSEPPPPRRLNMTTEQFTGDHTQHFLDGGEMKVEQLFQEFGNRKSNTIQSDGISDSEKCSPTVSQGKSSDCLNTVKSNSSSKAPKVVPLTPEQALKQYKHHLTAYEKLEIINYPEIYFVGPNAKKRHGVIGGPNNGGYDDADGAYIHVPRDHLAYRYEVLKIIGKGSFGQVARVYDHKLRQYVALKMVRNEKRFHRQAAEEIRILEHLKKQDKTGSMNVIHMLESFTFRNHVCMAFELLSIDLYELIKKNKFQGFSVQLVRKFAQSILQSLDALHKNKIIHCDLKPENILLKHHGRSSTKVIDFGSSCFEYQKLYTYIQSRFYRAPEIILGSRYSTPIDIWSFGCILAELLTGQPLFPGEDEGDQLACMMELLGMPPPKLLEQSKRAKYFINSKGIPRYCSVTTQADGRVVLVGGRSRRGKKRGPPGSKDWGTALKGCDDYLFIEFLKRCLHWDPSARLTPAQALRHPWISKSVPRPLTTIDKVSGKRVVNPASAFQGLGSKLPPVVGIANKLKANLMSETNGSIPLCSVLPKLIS
The data set is described as follows: Inhibition of DYRK3 (unknown origin) at 10 uM relative to control.

The target in data set [6] is T1, Dual specificity tyrosine-phosphorylation-regulated kinase 1A. The data set is described as follows: Inhibition of DYRK1A (unknown origin) in presence of ATP.
In data set [7] the test system is CCN1/C(=C/C(C)=O)Sc2ccc(O)cc21. Briefly: Competitive inhibition of DYRK1A (unknown origin) assessed as michaelis-constant (Km). To be noted: Homo sapiens.
Data set [8] addresses T1, Dual specificity tyrosine-phosphorylation-regulated kinase 1A. The data set is described as follows: Inhibition of DYRK1A (unknown origin) autophosphorylation.
For data set [9], the target named is T4, Dual specificity tyrosine-phosphorylation-regulated kinase 2 (Homo sapiens, UniProt Q92630).
T4 sequence (Q92630 whole entry): T2 sequence (whole entry)
Briefly: Inhibition of DYRK2 (unknown origin).

Data set [10] deals with Acetylcholinesterase (Homo sapiens, UniProt P22303). Briefly: Inhibition of AChE (unknown origin).
Sequence of Acetylcholinesterase (P22303 whole entry): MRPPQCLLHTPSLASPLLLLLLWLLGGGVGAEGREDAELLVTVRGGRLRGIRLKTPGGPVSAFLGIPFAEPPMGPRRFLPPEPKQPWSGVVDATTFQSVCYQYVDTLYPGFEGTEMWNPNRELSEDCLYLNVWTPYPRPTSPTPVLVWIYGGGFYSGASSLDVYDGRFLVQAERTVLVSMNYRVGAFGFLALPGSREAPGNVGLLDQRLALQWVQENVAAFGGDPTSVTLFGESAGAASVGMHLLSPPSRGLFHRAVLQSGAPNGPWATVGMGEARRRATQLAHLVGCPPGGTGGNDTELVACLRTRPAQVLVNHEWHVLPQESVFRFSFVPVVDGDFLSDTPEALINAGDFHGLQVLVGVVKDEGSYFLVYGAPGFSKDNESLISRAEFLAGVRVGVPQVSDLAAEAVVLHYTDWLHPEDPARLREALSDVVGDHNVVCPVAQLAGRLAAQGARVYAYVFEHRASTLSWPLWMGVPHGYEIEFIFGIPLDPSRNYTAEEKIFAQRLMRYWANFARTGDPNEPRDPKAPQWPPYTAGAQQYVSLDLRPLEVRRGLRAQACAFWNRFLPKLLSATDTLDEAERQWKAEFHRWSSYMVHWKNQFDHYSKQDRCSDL

Sequence of Dual specificity tyrosine-phosphorylation-regulated kinase 1B (Q9Y463 whole entry): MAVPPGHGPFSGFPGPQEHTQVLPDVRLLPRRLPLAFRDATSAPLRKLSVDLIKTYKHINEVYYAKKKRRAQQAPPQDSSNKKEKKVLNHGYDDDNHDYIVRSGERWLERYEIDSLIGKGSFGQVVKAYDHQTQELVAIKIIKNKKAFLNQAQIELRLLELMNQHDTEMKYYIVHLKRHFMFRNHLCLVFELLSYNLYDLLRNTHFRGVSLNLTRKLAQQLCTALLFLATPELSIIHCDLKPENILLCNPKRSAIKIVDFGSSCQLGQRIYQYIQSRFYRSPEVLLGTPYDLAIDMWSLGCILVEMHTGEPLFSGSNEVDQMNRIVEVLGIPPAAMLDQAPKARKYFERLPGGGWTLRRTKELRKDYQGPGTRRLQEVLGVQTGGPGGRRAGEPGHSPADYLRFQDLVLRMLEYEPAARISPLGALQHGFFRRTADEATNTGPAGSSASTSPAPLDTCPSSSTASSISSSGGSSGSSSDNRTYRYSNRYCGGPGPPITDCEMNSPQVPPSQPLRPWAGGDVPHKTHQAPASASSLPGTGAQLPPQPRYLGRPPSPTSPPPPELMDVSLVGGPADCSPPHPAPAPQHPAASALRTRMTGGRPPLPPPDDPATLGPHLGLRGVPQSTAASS

The Ki is a measure of affinity in units of concentration, obtained from inhibition or displacement. On to `O=C1c2ccc(O)c(O)c2C(=O)c2c(O)ccc(O)c21` [QUINALIZARIN], for which the Ki in [1] is 5850 nM.
For orientation: IC50 means the point on the concentration scale where inhibition reaches its midpoint. Turning to `CCC(=O)O[C@@H](C/C=C(\C)C(=O)OC)[C@H](C(=O)OC)[C@@H](OC(C)=O)[C@@H](C[C@H](C)[C@H](OC(=O)CC(C)C)[C@@H]1C[C@H](C)C[C@]2(C[C@H](C)C[C@@](O)(CC(C)=O)O2)O1)OC(=O)CC(C)C`, the IC50 in data set [2] is > 10000 nM.
In the case of `COC(=N)c1nc2ccc3ncnc(Nc4ccc(Br)cc4F)c3c2s1`, in [3], the IC50 worked out at 220 nM.
For the compound `CN1CCc2cc3c(c4c2C1Cc1ccccc1-4)OCO3` (stereo not drawn) [ROEMERINE], in data set [2], the half-maximal inhibitory concentration (IC50) amounted to 15000 nM.
As usually defined, the inhibition is how much of the control response was suppressed. Low values mean a weak effect, high ones a strong effect. Turning to `CCN1/C(=C/C(C)=O)Sc2ccc(O)cc21`, the inhibition in [4] and in data set [5] was > 90% each time.
Consider `CCOc1cc(/C=C2\SC(=S)NC2=O)ccc1OC`, for which inhibition in data set [2] was half-maximal at 60.2 nM (IC50).
On to `Cc1cc(=O)oc2cc3cc(O)ccc3cc12`, for which, in [6], the IC50 was found to be 600 nM.
Still for that read-out and setting: the result for `Cc1cc(=O)oc2cc3c([N+](=O)[O-])c(O)ccc3cc12` reads 15000 nM.
By Km is commonly meant the substrate concentration at which the rate is half of its maximum. With “Dual specificity tyrosine-phosphorylation-regulated kinase 1A (Homo sapiens) (from UniProt Q13627)”, in data set [7], the Km was determined as 37 µM.
In the case of `N=C1NC(=O)/C(=C/c2ccc3c(c2)CCO3)S1`, inhibition in data set [2] was half-maximal at 7.9 nM (IC50).
In the case of `CO[C@H]1[C@H](O)[C@@H](O)[C@H](n2c3c(Cl)cccc3c3c4c(c5c6cccc(Cl)c6[nH]c5c32)C(=O)NC4=O)O[C@@H]1CO` [REBECCAMYCIN], in data set [2], the IC50 was 19 nM.
Take `CCC(=O)O[C@@H](C/C=C(\C)C(=O)OC)[C@H](C(=O)OC)[C@@H](OC(C)=O)[C@@H](C[C@H](C)[C@H](OC(=O)CC(C)C)[C@@H]1C[C@H](C)C[C@]2(C[C@H](C)C[C@](CC(C)=O)(OC(C)=O)O2)O1)OC(=O)CC(C)C`: the IC50 in [2] is > 10000 nM.
In turn, `COc1cccc(NC(=O)Nc2nnc(-c3ccncc3)s2)c1` showed an IC50 in data set [8] of 2500 nM.
Consider `COc1cc(/C=C2\C(=O)NN(c3ccc(Cl)c(Cl)c3)C2=O)ccc1O`, for which, in [8], the IC50 amounted to 50000 nM.
Regarding `COc1ccc2c(c1)[nH]c1c(C)nccc12` [HARMINE], the results for the IC50 in [9] and in data set [10] were 1900 nM and 11300 nM, respectively.
As for `COC(=N)c1nc2ccc3ncnc(Nc4ccc(Cl)cc4Cl)c3c2s1`, in [3], the IC50 was 280 nM.
